Where two headings read alike, the source gives them in different places. *1 amine or outer side, *2 acyl side, *3 side chain or, on linkers, in order; H or OH if unused. Where a SMILES comes first, the peptide text is derived from it. Bridges are numbered along the chain shown (N, C = ends). Where no end group is shown, it is not given here. [ ]: non-standard residue; d: D form. S6H = (2S)-2-aminooct-7-enoic acid, C=CCCCC[C@H](N[*:1])C(=O)[*:2]; R5Me = hydrocarbon side chain-substituted amino acid; dNle(6-ylidene) = O=C([C@@H](CCCC=[*:3])N[*:1])[*:2]; dGly(6-heptenyl) = C=CCCCCC[C@@H](N)C(=O)O; Ala(5-hexenyl) = C=CCCCCC[C@H](N)C(=O)O; dNle(6-vinyl) = C=CCCCC[C@@H](N)C(=O)O; X6 = CCCCCCC[C@H](N[*:1])C(=O)[*:2]
Assays:
[1] = Lipid (liposome) solubilization, turbidimetric method; format: biochemical
Method: As noted above, the other important parameter was phospholipid solubilization. A turbidimetric method is used to determine the solubilization capacity of peptides of the present invention. First, a three-fold serial titration of the peptide is prepared in a polypropylene v-shaped 96-well plate. The eight-point titration is done in phosphate-buffered saline (PBS, pH 7.5) or DMSO from a starting concentration that allows for addition to an optically-clear bottomed assay plate in <100 μl aliquots to yield a starting concentration of 500 μM in 200 μl final well volume. PBS is then added to each well to bring the total volume to 100 μl. Any bubbles in the wells must be dispersed to avoid erroneous results. Next, from a turbid but homogeneous emulsion of dimyristoyl phosphatidylcholine at 0.5 mg/ml in PBS, 100 μl is added to each well in the assay plate, the plate is inserted into the NEPHELOSTAR (BMG LABTECH INSTRUMENTS), and readings are taken immediately and every 15 minutes over 2 hours.
A true 0-point value is calculated by averaging the readings of the wells with phospholipid but no peptide. For each peptide concentration, a percent decrease in turbidity is calculated by subtracting the 0-point value from the corresponding 30 and 120 minute readings and dividing by that 0-point value. Finally the EC50 values for both time points are determined using PRISM software (Table 2).

[2] = target: T1, ABCA1 cholesterol transporter protein (Mus musculus, UniProt P41233); test: ABCA1-dependent cholesterol efflux from RAW mouse macrophage cells (in vitro RCT assay); format: cell-based
T1 construct: endogenous in cells
T1 sequence (P41233 whole entry): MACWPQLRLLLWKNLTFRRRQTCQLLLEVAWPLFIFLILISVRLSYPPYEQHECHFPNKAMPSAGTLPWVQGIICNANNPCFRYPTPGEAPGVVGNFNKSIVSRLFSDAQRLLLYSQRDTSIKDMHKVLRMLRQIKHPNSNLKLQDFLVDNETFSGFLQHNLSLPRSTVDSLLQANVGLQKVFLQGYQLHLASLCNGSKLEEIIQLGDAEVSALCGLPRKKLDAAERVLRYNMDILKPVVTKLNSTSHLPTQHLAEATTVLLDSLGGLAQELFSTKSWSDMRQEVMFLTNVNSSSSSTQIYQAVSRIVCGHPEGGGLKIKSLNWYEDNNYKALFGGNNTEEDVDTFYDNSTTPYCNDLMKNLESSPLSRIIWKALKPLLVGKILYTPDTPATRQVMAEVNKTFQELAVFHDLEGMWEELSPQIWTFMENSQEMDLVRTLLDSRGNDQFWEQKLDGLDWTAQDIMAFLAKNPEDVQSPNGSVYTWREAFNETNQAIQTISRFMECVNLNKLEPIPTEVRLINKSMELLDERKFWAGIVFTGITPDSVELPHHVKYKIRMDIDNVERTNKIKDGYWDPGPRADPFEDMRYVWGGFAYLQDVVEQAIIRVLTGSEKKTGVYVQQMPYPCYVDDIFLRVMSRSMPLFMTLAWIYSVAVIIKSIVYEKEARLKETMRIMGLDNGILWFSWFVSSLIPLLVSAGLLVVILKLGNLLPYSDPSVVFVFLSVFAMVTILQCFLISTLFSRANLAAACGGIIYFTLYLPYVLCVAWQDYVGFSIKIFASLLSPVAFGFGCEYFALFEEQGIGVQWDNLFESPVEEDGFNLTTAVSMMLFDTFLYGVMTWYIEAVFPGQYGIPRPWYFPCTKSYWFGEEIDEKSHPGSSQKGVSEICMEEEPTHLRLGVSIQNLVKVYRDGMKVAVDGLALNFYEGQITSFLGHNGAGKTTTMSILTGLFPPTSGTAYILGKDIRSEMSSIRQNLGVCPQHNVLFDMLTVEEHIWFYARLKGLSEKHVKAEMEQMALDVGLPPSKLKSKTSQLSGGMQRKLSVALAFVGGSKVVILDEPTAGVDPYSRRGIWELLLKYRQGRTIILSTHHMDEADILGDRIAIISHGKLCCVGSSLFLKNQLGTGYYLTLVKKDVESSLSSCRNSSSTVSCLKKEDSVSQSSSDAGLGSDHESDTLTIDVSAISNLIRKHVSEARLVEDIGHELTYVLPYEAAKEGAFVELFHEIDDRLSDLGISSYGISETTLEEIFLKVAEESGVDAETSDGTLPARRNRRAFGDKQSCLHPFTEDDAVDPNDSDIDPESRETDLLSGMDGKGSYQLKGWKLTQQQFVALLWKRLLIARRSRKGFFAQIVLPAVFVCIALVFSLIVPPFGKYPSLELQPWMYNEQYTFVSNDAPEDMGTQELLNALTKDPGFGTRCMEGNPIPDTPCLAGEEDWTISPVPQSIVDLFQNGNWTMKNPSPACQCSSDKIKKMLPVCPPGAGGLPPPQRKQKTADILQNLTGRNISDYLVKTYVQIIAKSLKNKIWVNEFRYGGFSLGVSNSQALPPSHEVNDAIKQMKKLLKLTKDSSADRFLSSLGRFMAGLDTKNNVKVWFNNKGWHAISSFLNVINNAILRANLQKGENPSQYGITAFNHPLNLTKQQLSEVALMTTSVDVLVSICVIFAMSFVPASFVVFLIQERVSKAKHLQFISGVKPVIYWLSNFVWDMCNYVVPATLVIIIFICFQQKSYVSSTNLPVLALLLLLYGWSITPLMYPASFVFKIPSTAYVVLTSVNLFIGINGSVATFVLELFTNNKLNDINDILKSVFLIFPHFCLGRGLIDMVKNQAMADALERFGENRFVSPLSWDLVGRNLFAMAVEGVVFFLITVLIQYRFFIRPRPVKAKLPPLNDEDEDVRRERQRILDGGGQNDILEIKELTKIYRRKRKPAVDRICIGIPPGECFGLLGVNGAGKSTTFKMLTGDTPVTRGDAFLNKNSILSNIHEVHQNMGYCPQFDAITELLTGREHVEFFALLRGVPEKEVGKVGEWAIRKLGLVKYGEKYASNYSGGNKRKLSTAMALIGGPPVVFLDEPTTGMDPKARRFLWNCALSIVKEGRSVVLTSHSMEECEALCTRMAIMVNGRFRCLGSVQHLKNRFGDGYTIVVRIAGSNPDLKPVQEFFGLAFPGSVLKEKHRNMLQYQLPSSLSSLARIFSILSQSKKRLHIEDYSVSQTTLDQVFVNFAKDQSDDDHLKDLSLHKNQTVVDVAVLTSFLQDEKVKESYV
Text: Peptides of the present invention were designed based on amphipathic properties and their abilities to solubilize phospholipids and promote cholesterol efflux. The most direct functional measurement of efficacy for the ApoA-1 peptide mimetic is its capacity to improve the efflux of cholesterol from the cell. The RAW and J774 cell lines are reliable mouse macrophage cell lines frequently used in the art for this purpose. […] The RAW cell line is preferred and recited in the description below.
In the present assay, the RAW cells are plated at 1.5×10^5 cells/200 μl/well/48-well plate in DMEM complete medium (with 10% FBS from INVITROGEN and 1% penicillin-streptomycin-glutamine from GIBCO) and ^3H-cholesterol at 5 μCi/ml. After 24 hours incubation in a moist 37° C. atmosphere with 5% CO2, the spent medium is removed, the cells are washed once with serum-free DMEM (0.1% fatty acid free bovine serum albumin replaces the FBS), and fresh serum-free medium (200 μl) is added to each well. After overnight incubation in the serum-free medium to allow the cellular cholesterol pools to equilibrate, the spent medium is removed, and fresh serum-free medium is added with/without CPT-cAMP (150 μM final). Eight-point serial titrations of the peptide/s being tested are added at this time (duplicate titrations in plain medium without cAMP and duplicate titrations in medium containing cAMP).
After 24 hours incubation in the various conditions, the medium is harvested from each well and 50 μl aliquots are counted. The cells are then lysed by adding 500 μl of HEPES/Triton lysis buffer to each well. The lysis is facilitated by freezing and thawing once. After thawing, the lysates are mixed well and 50 μl aliquots are counted.
The percent efflux of each peptide in each medium condition (±cAMP) is calculated by dividing the total counts in the medium by the sum of the total counts in the medium and lysate. The percent efflux seen with plain medium is subtracted from the percent efflux seen with the cAMP-stimulated efflux to yield the reported ABCA1-stimulated values. EC50 values are determined using PRISM software (Table 2).

[3] = read-out: IC50 in the liposome solubilization assay
[4] = read-out: EC50 in the cholesterol efflux assay (RCT in vitro assay)
[5] = read-out: ABCA1-DEPENDENT CHOLESTEROL EFFLUX EC50

16 (Ac-PVLDEFRE[R5Me]LNE[R5Me]LEALKQKLK; not fully specified (C-terminus)) [compound 16]
IC50 ([1]; Measured at 2 h, read-out: LIPID SOLUBILIZATION IC50): 24 µM

C=CCCC[C@@H](NC(=O)[C@H](CCC(=O)O)NC(=O)[C@H](CC(N)=O)NC(=O)[C@H](CC(C)C)NC(=O)[C@@H](CCCC=C)NC(=O)[C@H](CCC(=O)O)NC(=O)[C@H](CCCNC(=N)N)NC(=O)[C@H](Cc1ccccc1)NC(=O)[C@H](CCC(=O)O)NC(=O)[C@H](CC(=O)O)NC(=O)[C@H](CC(C)C)NC(=O)[C@@H](NC(=O)[C@@H]1CCCN1C(C)=O)C(C)C)C(=O)N[C@@H](CC(C)C)C(=O)N[C@@H](CCC(=O)O)C(=O)N[C@@H](C)C(=O)N[C@@H](CC(C)C)C(=O)N[C@@H](CCCCN)C(=O)N[C@@H](CCC(N)=O)C(=O)N[C@@H](CCCCN)C(=O)N[C@@H](CC(C)C)C(=O)N[C@@H](CCCCN)C(N)=O [SEQ ID NO 9, PVLDEFRER5HLNER5HLEALKQKLK] (Ac-PVLDEFRE[dNle(6-ylidene)]LNE[dNle(6-ylidene)]LEALKQKLK-NH2; C-terminus assumed)
IC50 [1, 3]: 91 µM

C=CCCCCC[C@H](NC(=O)[C@H](CCC(=O)O)NC(=O)[C@H](CC(N)=O)NC(=O)[C@H](CC(C)C)NC(=O)[C@H](CCCCN)NC(=O)[C@H](CCC(=O)O)NC(=O)[C@H](CCCNC(=N)N)NC(=O)[C@@H](CCCCC=C)NC(=O)[C@H](CCC(=O)O)NC(=O)[C@H](CC(=O)O)NC(=O)[C@H](CC(C)C)NC(=O)[C@@H](NC(=O)[C@@H]1CCCN1C(C)=O)C(C)C)C(=O)N[C@@H](CC(C)C)C(=O)N[C@@H](CCC(=O)O)C(=O)N[C@@H](C)C(=O)N[C@@H](CC(C)C)C(=O)N[C@@H](CCCCN)C(=O)N[C@@H](CCC(N)=O)C(=O)N[C@@H](CCCCN)C(=O)N[C@@H](CC(C)C)C(=O)N[C@@H](CCCCN)C(N)=O [SEQ ID NO 13, PVLDER6HREKLNES7HLEALKQKLK] (Ac-PVLDE[dNle(6-vinyl)]REKLNE[Ala(5-hexenyl)]LEALKQKLK-NH2; C-terminus assumed)
IC50 [1, 3]: 25 µM

C=CCCCC[C@@H](NC(=O)[C@H](CCC(=O)O)NC(=O)[C@H](CC(N)=O)NC(=O)[C@H](CC(C)C)NC(=O)[C@H](CCCCN)NC(=O)[C@H](CCC(=O)O)NC(=O)[C@H](CCCNC(=N)N)NC(=O)[C@H](Cc1ccccc1)NC(=O)[C@H](CCC(=O)O)NC(=O)[C@H](CC(=O)O)NC(=O)[C@H](CC(C)C)NC(=O)[C@@H](NC(=O)[C@@H]1CCCN1C(C)=O)C(C)C)C(=O)N[C@@H](CC(C)C)C(=O)N[C@@H](CCC(=O)O)C(=O)N[C@@H](C)C(=O)N[C@@H](CC(C)C)C(=O)N[C@@H](CCCCN)C(=O)N[C@@H](CCC(N)=O)C(=O)N[C@@H](CCCCN)C(=O)N[C@@H](CC(C)C)C(=O)N[C@@H](CCCCN)C(N)=O [SEQ ID NO 18, PVLDEFREKLNER6HLEALKQKLK] (Ac-PVLDEFREKLNE[dNle(6-vinyl)]LEALKQKLK-NH2; C-terminus assumed)
IC50 [1, 3]: 32 µM

CCCCCCC[C@H](NC(=O)[C@H](CCC(=O)O)NC(=O)[C@H](CC(N)=O)NC(=O)[C@H](CC(C)C)NC(=O)[C@H](CCCCN)NC(=O)[C@H](CCC(=O)O)NC(=O)[C@H](CCCNC(=N)N)NC(=O)[C@H](CCCCCCC)NC(=O)[C@H](CCC(=O)O)NC(=O)[C@H](CC(=O)O)NC(=O)[C@H](CC(C)C)NC(=O)[C@@H](NC(=O)[C@@H]1CCCN1C(C)=O)C(C)C)C(=O)N[C@@H](CC(C)C)C(=O)N[C@@H](CCC(=O)O)C(=O)N[C@@H](C)C(=O)N[C@@H](CC(C)C)C(=O)N[C@@H](CCCCN)C(=O)N[C@@H](CCC(N)=O)C(=O)N[C@@H](CCCCN)C(=O)N[C@@H](CC(C)C)C(=O)N[C@@H](CCCCN)C(N)=O [SEQ ID NO 50, PVLDES7H3REKLNES7H3LEALKQKLK] (Ac-PVLDE[X6]REKLNE[X6]LEALKQKLK-NH2; C-terminus assumed)
EC50 [2, 4]: 0.3 µM

C=CCCC[C@@H](NC(=O)[C@H](CCC(=O)O)NC(=O)[C@H](CC(N)=O)NC(=O)[C@H](CC(C)C)NC(=O)[C@@H](CCCC=C)NC(=O)[C@H](CCC(=O)O)NC(=O)[C@H](CCCNC(=N)N)NC(=O)[C@H](Cc1ccccc1)NC(=O)[C@H](CCC(=O)O)NC(=O)[C@H](CC(=O)O)NC(=O)[C@H](CC(C)C)NC(=O)[C@@H](NC(=O)[C@@H]1CCCN1C(C)=O)C(C)C)C(=O)N[C@@H](CC(C)C)C(=O)N[C@@H](CCC(=O)O)C(=O)N[C@@H](C)C(=O)N[C@@H](CC(C)C)C(=O)N[C@@H](CCCCN)C(=O)N[C@@H](CCC(N)=O)C(=O)N[C@@H](CCCCN)C(=O)N[C@@H](CC(C)C)C(=O)N[C@@H](CCCCN)C(N)=O [compound 9] (Ac-PVLDEFRE[dNle(6-ylidene)]LNE[dNle(6-ylidene)]LEALKQKLK-NH2; C-terminus assumed)
EC50 [2, 5]: 46 µM

C=CCCCCC[C@H](NC(=O)[C@H](CCC(=O)O)NC(=O)[C@H](CC(=O)O)NC(=O)[C@H](CC(C)C)NC(=O)[C@@H](NC(=O)[C@@H]1CCCN1C(C)=O)C(C)C)C(=O)N[C@@H](CCCNC(=N)N)C(=O)N[C@@H](CCC(=O)O)C(=O)N[C@@H](CCCCN)C(=O)N[C@@H](CC(C)C)C(=O)N[C@@H](CC(N)=O)C(=O)N[C@@H](CCC(=O)O)C(=O)N[C@H](CCCCC=C)C(=O)N[C@@H](CC(C)C)C(=O)N[C@@H](CCC(=O)O)C(=O)N[C@@H](C)C(=O)N[C@@H](CC(C)C)C(=O)N[C@@H](CCCCN)C(=O)N[C@@H](CCC(N)=O)C(=O)N[C@@H](CCCCN)C(=O)N[C@@H](CC(C)C)C(=O)N[C@@H](CCCCN)C(N)=O [compound 10] (Ac-PVLDE[Ala(5-hexenyl)]REKLNE[dNle(6-vinyl)]LEALKQKLK-NH2; C-terminus assumed)
EC50 [2, 5]: 1.3 µM

CC(=O)N1CCC[C@H]1C(=O)N[C@H](C(=O)N[C@@H](CC(C)C)C(=O)N[C@@H](CC(=O)O)C(=O)N[C@@H](CCC(=O)O)C(=O)N[C@@H](Cc1ccccc1)C(=O)N[C@@H](CCCNC(=N)N)C(=O)N[C@@H](CCC(=O)O)C(=O)N[C@@H]1CCCC=CCCC[C@H](C(=O)N[C@@H](CC(C)C)C(=O)N[C@@H](CCC(=O)O)C(=O)N[C@@H](C)C(=O)N[C@@H](CC(C)C)C(=O)N[C@@H](CCCCN)C(=O)N[C@@H](CCC(N)=O)C(=O)N[C@@H](CCCCN)C(=O)N[C@@H](CC(C)C)C(=O)N[C@@H](CCCCN)C(N)=O)NC(=O)[C@H](CCC(=O)O)NC(=O)[C@H](CC(N)=O)NC(=O)[C@H](CC(C)C)NC1=O)C(C)C [compound 12] (Ac-PVLDEFRE[dNle(6-ylidene)]LNE[dNle(6-ylidene)]LEALKQKLK-NH2; staple 9-13; C-terminus assumed)
EC50 [2, 5]: 10 µM

Ac-PVLDEFREKLNE[Ala(5-hexenyl)]LEALKQKLKPVLDEFREKLNE[Ala(5-hexenyl)]LEALKQKLK-NH2 (C-terminus assumed) [SEQ ID NO 63]
EC50 [2, 4]: 41 µM

PR7HLDEFREKLNEELEALKQKLK (Ac-P[dGly(6-heptenyl)]LDEFREKLNEELEALKQKLK; not fully specified (C-terminus)) [SEQ ID NO 20]
activity in the cholesterol efflux / in vitro RCT assay, in words [2]: only slightly active

PS6HLDEFREKLNEELEALKQKLK (Ac-P[S6H]LDEFREKLNEELEALKQKLK; not fully specified (C-terminus)) [SEQ ID NO 23]
activity in the cholesterol efflux / in vitro RCT assay, in words [2]: only slightly active

PVLDEFREKLNEELEALKQR7HLK (Ac-PVLDEFREKLNEELEALKQ[dGly(6-heptenyl)]LK; not fully specified (C-terminus); printed as PVLDEFREKLNEELEALKQR7HLK) [SEQ ID NO 22]
activity in the cholesterol efflux / in vitro RCT assay, in words [2]: only slightly active

PVLDEFREKLNEELEALKQS6HLK (Ac-PVLDEFREKLNEELEALKQ[S6H]LK; not fully specified (C-terminus); printed as PVLDEFREKLNEELEALKQS6HLK) [SEQ ID NO 25]
activity in the cholesterol efflux / in vitro RCT assay, in words [2]: only slightly active
